Reference: US4749706A (priority 1986, dated 1988)
Values joined by “and” are separate entries in the source; they are usually repeats but may differ in a detail not shown here. Equal values may be shown once. Read-outs that look alike come from different tables or passages of the source.

Columns and labels:
[1] = biological target: T1, opiate receptor (Rattus norvegicus, UniProt P33535); assay: biochemical; type: binding
T1 construct: from tissue

[2] = as disclosed in U.S. Pat. No. 4,218,454; cited from earlier work
[3] = induced Straub tail method (antagonist activity); settings: for ED50: read-out: Antagonism ED50, Straub Tail
[4] = writhing assay (analgesia); type: in vivo; settings: compared with morphine
Procedure: (§1) Analgesic activity was measured using the tail-flick assay of D'Amour, F. D., et al, J. Pharmacol. Exper. (1941) 72: 74, or by the writhing assay described by Blumberg, H., et al, Proc. Soc. Exp. Biol. Med. (1965) 118: 763. The antagonist activity, considered a measure of nonaddictiveness, was measured by the opiate receptor assay of Pert, C., et al, Mol. Pharmacol. (1974) 10: 868. Antagonist activity was also measured using the induced Straub tail method as described by De Graw, J., et al, J. Med Chem (1978) 21: 415; and Blumberg, H., et al, Advances in Chemical Psychopharmacology, Vol. 8, M. Braudy, et al, ed. Raven Press, New York, N.Y. (1973), 33-43. A direct and simple assay measuring physical dependence is the mouse jump test described by Saelens, J., et al, Arch Int Pharmacodyn (1971) 190: 213.

[5] = in vivo
[6] = mouse jump test (physical dependence); type: in vivo; settings: after 100 mg/kg naloxone on day 4; 30 min
Procedure: as §1
Physical dependence, a much more direct measure of non-addictive properties than antagonist activity, was evaluated using the mouse jump test. Mice are injected intraperitoneally 5 times on day 1 with increasing doses of test compound ranging from 8-100 mg/kg body weight. On days 2 and 3 the mice are given 100 mg/kg 4 times. On day 4 all mice receive 100 mg/kg of the antagonist naloxone in a single dose. The mice are then caged for 30 min, and a record is made of the number jumping during this time.

[7] = +NaCl, read-out: Opiate Receptor Inhibition 1C50
[8] = -NaCl, read-out: Opiate Receptor Inhibition 1C50

T1 sequence (P33535 whole entry): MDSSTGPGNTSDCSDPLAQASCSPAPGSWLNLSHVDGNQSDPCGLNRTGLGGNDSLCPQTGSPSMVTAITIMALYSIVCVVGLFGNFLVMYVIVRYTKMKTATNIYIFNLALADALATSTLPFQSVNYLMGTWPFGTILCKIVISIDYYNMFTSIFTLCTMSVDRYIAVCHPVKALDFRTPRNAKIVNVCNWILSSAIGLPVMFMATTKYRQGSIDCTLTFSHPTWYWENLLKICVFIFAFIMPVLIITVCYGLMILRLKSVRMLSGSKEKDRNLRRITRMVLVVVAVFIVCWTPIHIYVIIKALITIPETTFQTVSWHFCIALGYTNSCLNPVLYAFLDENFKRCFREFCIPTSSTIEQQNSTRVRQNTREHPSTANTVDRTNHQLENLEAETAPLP

C=CCN1CC[C@]23c4c5ccc(O)c4O[C@H]2[C@@H](O)C=C[C@H]3[C@H]1C5 [nalorphine, reference compound]
IC50 ([1]; Opiate Receptor Inhibition 1C50): 2 nM and 6 nM | Antagonism ED50, Tail Flick (in vivo): 2.04 µmol/kg | addiction liability [2]: little or no addiction liability

CC(C1CC1)N1CC[C@]23c4c5ccc(O)c4O[C@H]2[C@@H](O)C=C[C@H]3[C@H]1C5 (mixture of isomers) [N-α-Methylcyclopropylmethylnormorphine]
antagonist potency relative to nalorphine ([3]; in vivo): about one-fourth as potent as nalorphine | ED50 [3]: 4.5 µmol/kg | IC50 [1, 7]: 6 nM | IC50 [1, 8]: 3 nM | potency relative to morphine in the writhing assay [4]: more than twice as potent | addiction liability [2]: little or no addiction liability | potency relative to morphine in the tail flick assay ([5]; sc): about 85%

CC[C@@H](C)N1CC[C@]23c4c5ccc(O)c4O[C@H]2[C@@H](O)C=C[C@H]3[C@H]1C5 [N--sec-butyl normorphine (R), reference compound]
ED50 [3]: 16.2 µmol/kg | IC50 [1, 7]: 110 nM | IC50 [1, 8]: 60 nM | addiction liability [2]: little or no addiction liability

CN1CC[C@]23c4c5ccc(O)c4O[C@H]2[C@@H](O)C=C[C@H]3[C@H]1C5 [morphine]
Antagonism ED50, Straub Tail ([3]; Straub tail method): 1 µmol/kg | number of mice jumping [6]: 10/10 | Antagonism ED50, Tail Flick (reversal of analgesia induced by morphine in the tail flick assay): 2 µmol/kg | time after which activity declines substantially [5]: 3 h

CC[C@H](C)N1CC[C@]23c4c5ccc(O)c4O[C@H]2[C@@H](O)C=C[C@H]3[C@H]1C5 [N--sec-butyl normorphine (S), reference compound]
ED50 [3]: 7.4 µmol/kg | IC50 [1, 7]: 62 nM | IC50 [1, 8]: 28 nM | addiction liability [2]: little or no addiction liability

CC(C1CC1)N1CC[C@]23c4c5ccc(O)c4O[C@H]2[C@@H](O)C=C[C@H]3[C@H]1C5 (single isomer, unassigned; diastereomer b) [N--α-methylcyclopropyl-methyl normorphine (B)] [N-methylcyclopropylmethyl normorphine (diastereomer B)]
potency relative to morphine in the tail flick assay (in words) ([5]; sc): only one-fifth as potent as morphine

CC(C1CC1)N1CC[C@]23c4c5ccc(O)c4O[C@H]2[C@@H](O)C=C[C@H]3[C@H]1C5 (single isomer, unassigned; diastereomer a) [N--α-methylcyclopropyl-methyl normorphine (A)] [N-methylcyclopropylmethyl normorphine (diastereomer A)]
times the affinity of N-sec-butylnormorphine in the opiate assay [1]: about 122 times | times the affinity of morphine in the opiate assay [1]: over 43 times | times more tightly bound than the higher melting form ([1]; competitive binding against 3H-dihydromorphine, A versus B): 30 times | Antagonism ED50, Tail Flick (in vivo): > 213 µmol/kg | activity relative to the diastereomeric mixture and to diastereomer B [5]: much higher activity | oral activity compared with subcutaneous morphine in the tail flick assay [5]: approximated an equivalent dose of morphine administered subcutaneously | duration of effectiveness ([5]; po): 4 h | onset of action ([5]; po): 5 to 10 min | times as potent as morphine in tail flick analgesia, oral ([5]; po): 6.2 times | activity of lower melting diastereomer A relative to higher melting form ([5]; sc): about 25 times | times as potent as morphine in the tail flick assay ([5]; sc): 5.2 times

CC(C1CC1)N1CC[C@]23c4c5ccc(O)c4O[C@H]2[C@@H](O)C=C[C@H]3[C@H]1C5 (single isomer, unassigned; diastereomer b) [N-methylcyclopropylmethyl normorphine (diastereomer B)]
IC50 [1, 8]: 7 nM

CC(C1CC1)N1CC[C@]23c4c5ccc(O)c4O[C@H]2[C@@H](O)C=C[C@H]3[C@H]1C5 (single isomer, unassigned; diastereomer a) [N-methylcyclopropylmethyl normorphine (diastereomer A)]
IC50 [1, 8]: 0.23 nM
